Values quoted from earlier work, collected in US20160143979A1, “Long Pepper Extract an Effective Anticancer Treatment” (priority 2014, published 2016).

System: cancer cells
Settings: previous study

## COc1cc(/C=C/C(=O)N2CCC=CC2=O)cc(OC)c1OC [piperlongumine]
  concentration required for significant cell death induction: 10
